# Laboratory results taken from patent publication US20070093520A1, “Method of treatment of diarrhea-predominant irritable bowel syndrome in a subject” (priority 2005, published 2007).
# Test system: diarrhea-predominant IBS subjects
# Assay type: in vivo, human
# Conditions: Cilansetron 2 mg, N=1454
# Experimental: The study was performed in approximately 150 study centers. Approximately 1600 eligible subjects were to be given cilansetron 2 mg TID. At Visit 1, pre-treatment assessments were conducted. […] Subjects were to return to the study site one month later for Visit 3 (Day 31) for their first interim assessment. […] All subjects who discontinued from the study were to have the same post-study assessments required at Visit 7 performed at their early termination visit. […]
# Stool specimens were analyzed at every visit for occult blood. An independent GERB had been established to provide advice on GI AEs during the course of the study.
# Adverse events were assessed at Baseline, at each clinic visit, and at the end of the study (Month 12 or the early termination visit). All AEs, which occurred during the study were followed up in accordance with good medical practice until resolved or judged no longer clinically significant, or if a condition was chronic, until fully characterized. Adverse events could occur in the specified follow-up period and, regardless of the interval since the last administration of the study medication, were treated in the same manner as an AE which occurred during the treatment with study medication. Each AE was evaluated for duration, severity, seriousness, and causal relationship to the investigational drug. The action taken and the outcome were also recorded.
# Specifically, subjects who were lost to follow-up and had no post-Baseline contact with the site were excluded from the Safety population. The subjects who discontinued from the study due to lost to follow-up were identified based on the information collected on the study termination CRF page.
# After the pretreatment assessment at Visit 1 (Days […] to −3), subjects were to return to the study site for a Baseline assessment and start the treatment at Visit 2 (Day 1).
# For the by time-interval analyses of disposition, prevalence of AEs, and of markedly abnormal and predefined changes in laboratory values, vital signs, and ECGs, the following interval windows were used:
# Adverse events that were already present prior to the first dose of cilansetron study medication but increased in severity afterwards were considered as treatment-emergent.
# The 5% cutoff point was based on the incidence within higher level terms.
# Subjects were counted at most once for each primary system organ class and preferred term. Serious AEs that resolved prior to receiving study medication or occurred more than 30 days after the last dose of study medication were not included in the incidence tables. A listing of all SAEs is presented; SAEs with onset prior to receiving study medication or more than 30 days after discontinuation of study medication were flagged. The listing presents lower level term and preferred term of the SAE, severity, action taken, outcome, and relationship of the SAE, start and stop date of the SAE, study day of onset of the SAE, age, race, and sex.
smiles,measurement,value
"Cc1nccn1C[C@H]1CCc2c(c3cccc4c3n2CCC4)C1=O [cilansetron, (R)-(−)-4,5,6,8,9,10-hexahydro-10-[(2-methyl-1H-imidazol-1-yl)methyl]-11H-pyrido-[3,2,1-jk]-carbazol-11-one]",TEAE incidence: Intestinal Haemorrhages,22 (2%) n (%)
same,TEAE incidence: Intestinal Infections,1 (<1%) n (%)
same,TEAE incidence: Intestinal Mucosal Hypertrophy,1 (<1%) n (%)
same,TEAE incidence: Intestinal Spasm,1 (<1%) n (%)
same,TEAE incidence: Investigations,176 (12%) n (%)
same,TEAE incidence: Irritable Bowel Syndrome Aggravated,13 (<1%) n (%)
same,TEAE incidence: Lacunar Infarction,1 (<1%) n (%)
same,TEAE incidence: Liver Function Analyses,36 (2%) n (%)
same,TEAE incidence: Liver Function Tests NOS Abnormal,1 (<1%) n (%)
same,TEAE incidence: Loose Stools,15 (1%) n (%)
same,TEAE incidence: Lumbar Spinal Cord and Nerve Root Disorders,1 (<1%) n (%)
same,TEAE incidence: Lymphocyte Count Decreased,1 (<1%) n (%)
same,TEAE incidence: Lymphocyte Count Increased,1 (<1%) n (%)
same,TEAE incidence: Lymphocyte Percentage Decreased,1 (<1%) n (%)
same,TEAE incidence: Memory Impairment,1 (<1%) n (%)
same,TEAE incidence: Memory Loss (Excl Dementia),2 (<1%) n (%)
same,TEAE incidence: Meralgia Paraesthetica,1 (<1%) n (%)
same,TEAE incidence: Metabolism Tests NEC,9 (<1%) n (%)
same,TEAE incidence: Migraine Aggravated,1 (<1%) n (%)
same,TEAE incidence: Migraine Headaches,7 (<1%) n (%)
same,TEAE incidence: Migraine NOS,6 (<1%) n (%)
same,TEAE incidence: Mineral and Electrolyte Analyses,4 (<1%) n (%)
same,TEAE incidence: Monocyte Count Increased,1 (<1%) n (%)
same,TEAE incidence: Mononeuropathies,6 (<1%) n (%)
same,TEAE incidence: Mouth Cyst,1 (<1%) n (%)
same,TEAE incidence: Musculoskeletal and Connective Tissue Signs and Symptoms NEC,66 (5%) n (%)
same,TEAE incidence: Musculoskeletal and connective tissue disorders,129 (9%) n (%)
same,TEAE incidence: Narcolepsy and Hypersomnia,1 (<1%) n (%)
same,TEAE incidence: Nausea Aggravated,1 (<1%) n (%)
same,TEAE incidence: Nervous system disorders,155 (11%) n (%)
same,TEAE incidence: Neuralgia NOS,4 (<1%) n (%)
same,TEAE incidence: Neurological Signs and Symptoms NEC,30 (2%) n (%)
same,TEAE incidence: Neutrophil Count Decreased,2 (<1%) n (%)
same,TEAE incidence: Neutrophil Count Increased,2 (<1%) n (%)
same,TEAE incidence: Neutrophil Percentage Decreased,2 (<1%) n (%)
same,TEAE incidence: Nitrite Urine Present,4 (<1%) n (%)
same,TEAE incidence: Non-Mechanical Ileus,1 (<1%) n (%)
same,TEAE incidence: Non-Site Specific Gastrointestinal Haemorrhages,1 (<1%) n (%)
same,TEAE incidence: Oesophageal Spasm,1 (<1%) n (%)
same,TEAE incidence: Oesophagitis NOS,4 (<1%) n (%)
same,TEAE incidence: Oral Candidiasis,2 (<1%) n (%)
same,TEAE incidence: Oral Dryness and Saliva Altered,3 (<1%) n (%)
same,TEAE incidence: Oral Soft Tissue Signs and Symptoms,1 (<1%) n (%)
same,TEAE incidence: Otitis Externa NOS,2 (<1%) n (%)
same,TEAE incidence: Otitis Media NOS,3 (<1%) n (%)
same,TEAE incidence: Painful Defaecation,1 (<1%) n (%)
same,TEAE incidence: Pancreatitis Acute,1 (<1%) n (%)
same,TEAE incidence: Paraesthesia,3 (<1%) n (%)
same,TEAE incidence: Paraesthesias and Dysaesthesias,5 (<1%) n (%)
same,TEAE incidence: Periodontitis,3 (<1%) n (%)
same,TEAE incidence: Peripheral Neuropathies NEC,1 (<1%) n (%)
same,TEAE incidence: Peripheral Neuropathy NOS,1 (<1%) n (%)
same,TEAE incidence: Peritonsillar Abscess,1 (<1%) n (%)
same,TEAE incidence: Petit Mal Epilepsy,1 (<1%) n (%)
same,TEAE incidence: Pharyngitis Streptococcal,1 (<1%) n (%)
same,TEAE incidence: Pharyngotonsillitis,1 (<1%) n (%)
same,TEAE incidence: Physical Examination Procedures,23 (2%) n (%)
same,TEAE incidence: Pituitary Analyses Anterior,2 (<1%) n (%)
same,TEAE incidence: Platelet Analyses,3 (<1%) n (%)
same,TEAE incidence: Platelet Count Decreased,2 (<1%) n (%)
same,TEAE incidence: Platelet Count Increased,1 (<1%) n (%)
same,TEAE incidence: Pneumonia NOS,6 (<1%) n (%)
same,TEAE incidence: Post Herpetic Neuralgia,1 (<1%) n (%)
same,TEAE incidence: Proctalgia,6 (<1%) n (%)
same,TEAE incidence: Protein Urine Present,7 (<1%) n (%)
same,TEAE incidence: Pruritus Ani,3 (<1%) n (%)
same,TEAE incidence: Pseudofolliculitis Barbae,1 (<1%) n (%)
same,TEAE incidence: Pyelonephritis Acute NOS,1 (<1%) n (%)
same,TEAE incidence: Pyelonephritis NOS,3 (<1%) n (%)
same,TEAE incidence: Qrs Axis Abnormal,1 (<1%) n (%)
same,TEAE incidence: Radiculitis Lumbosacral,1 (<1%) n (%)
same,TEAE incidence: Rectal Haemorrhage,20 (1%) n (%)
same,TEAE incidence: Rectal Polyp,1 (<1%) n (%)
same,TEAE incidence: Rectal Prolapse,1 (<1%) n (%)
same,TEAE incidence: Rectal Tenesmus,5 (<1%) n (%)
same,TEAE incidence: Rectal Ulcer,1 (<1%) n (%)
same,TEAE incidence: Red Blood Cell Analyses,2 (<1%) n (%)
same,TEAE incidence: Red Blood Cell Count Decreased,1 (<1%) n (%)
same,TEAE incidence: Red Blood Cell Sedimentation Rate Increased,1 (<1%) n (%)
same,TEAE incidence: Red Blood Cells Urine Positive,2 (<1%) n (%)
same,TEAE incidence: Regurgitation of Food,1 (<1%) n (%)
same,TEAE incidence: Renal Function Analyses,2 (<1%) n (%)
same,TEAE incidence: Restless Leg Syndrome,1 (<1%) n (%)
same,TEAE incidence: Retching,3 (<1%) n (%)
same,TEAE incidence: Sciatica,3 (<1%) n (%)
same,TEAE incidence: Sensitivity of Teeth,1 (<1%) n (%)
same,TEAE incidence: Sensory Abnormalities NEC,6 (<1%) n (%)
same,"TEAE incidence: Sepsis, Bacteraemia and Viraemia",3 (<1%) n (%)
same,TEAE incidence: Serum Ferritin Decreased,1 (<1%) n (%)
same,TEAE incidence: Sinus Headache,1 (<1%) n (%)
same,TEAE incidence: Sinusitis Acute NOS,2 (<1%) n (%)
same,TEAE incidence: Sinusitis Chronic NOS,1 (<1%) n (%)
same,TEAE incidence: Skeletal and Cardiac Muscle Analyses,32 (2%) n (%)
same,TEAE incidence: Skin and Subcutaneous Tissue Abscess NOS,1 (<1%) n (%)
same,TEAE incidence: Sleep Apnoea Syndrome,1 (<1%) n (%)
same,TEAE incidence: Sleep Apnoeas,1 (<1%) n (%)
same,TEAE incidence: Sleep Talking,1 (<1%) n (%)
same,TEAE incidence: Stomatitis,1 (<1%) n (%)
same,TEAE incidence: Stomatitis and Ulceration,2 (<1%) n (%)
same,TEAE incidence: Stools Watery,2 (<1%) n (%)
same,TEAE incidence: Syncope,4 (<1%) n (%)
same,TEAE incidence: Taeniasis,1 (<1%) n (%)
same,TEAE incidence: Tension Headaches,2 (<1%) n (%)
same,TEAE incidence: Tinea Pedis,1 (<1%) n (%)
same,TEAE incidence: Tissue Enzyme Analyses NEC,7 (<1%) n (%)
same,TEAE incidence: Tongue Disorders NEC,1 (<1%) n (%)
same,TEAE incidence: Tonsillitis Acute NOS,2 (<1%) n (%)
same,TEAE incidence: Tonsillitis NOS,11 (<1%) n (%)
same,TEAE incidence: Tooth Abscess,2 (<1%) n (%)
same,TEAE incidence: Tooth Caries NOS,3 (<1%) n (%)
same,TEAE incidence: Toothache,11 (<1%) n (%)
same,TEAE incidence: Torticollis,1 (<1%) n (%)
same,TEAE incidence: Tracheitis NOS,5 (<1%) n (%)
same,TEAE incidence: Tracheobronchitis,1 (<1%) n (%)
